This assay concerns the target T1, Muscarinic acetylcholine receptor M1 (Homo sapiens, UniProt P11229).
T1 sequence (P11229 whole entry): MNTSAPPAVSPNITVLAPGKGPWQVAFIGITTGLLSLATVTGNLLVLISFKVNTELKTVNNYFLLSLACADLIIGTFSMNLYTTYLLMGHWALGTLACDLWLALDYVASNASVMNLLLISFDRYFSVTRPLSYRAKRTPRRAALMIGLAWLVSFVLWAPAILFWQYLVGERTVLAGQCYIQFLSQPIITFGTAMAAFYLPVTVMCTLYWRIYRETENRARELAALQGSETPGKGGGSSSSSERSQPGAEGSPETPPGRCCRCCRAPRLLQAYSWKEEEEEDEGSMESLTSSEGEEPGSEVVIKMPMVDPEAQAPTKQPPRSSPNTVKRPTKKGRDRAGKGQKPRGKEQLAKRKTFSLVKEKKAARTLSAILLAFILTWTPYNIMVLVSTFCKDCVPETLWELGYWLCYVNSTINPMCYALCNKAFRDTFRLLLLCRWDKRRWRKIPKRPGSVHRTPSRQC
In words: Positive allosteric modulator activity at human muscarinic M1 receptor by calcium mobilization assay. In general terms: A change in cytosolic calcium serves as a functional read-out for many receptors and channels.

Drawing on BindingDB's records for doi:10.1016/j.bmcl.2012.11.092 (Vanderbilt University Medical Center, 2012), this text covers EC50 for one compound.

Broadly, the EC50 is the midpoint of the concentration-response curve.

“And” between values parts separate entries of the source, which are not always exact repeats. Equal entries are not always repeated.

In the case of `Cn1cc(-c2ccc(CN3C(=O)C(O)(C(F)(F)F)c4ccccc43)c(F)c2)cn1` (stereo unspecified), the EC50 was 3.31 µM and 3.3 µM.
